Measured values from article PMC12775434, “Ultra-large virtual screening unveils potent agonists of the neuromodulatory orphan receptor GPR139” (Nature Communications, 2025).
Where “and” joins values, the source holds several entries; their conditions need not be identical. Equal entries are not always repeated.

Assays:
Type in all cases: cell-based
[1] = target: T1, GPR139 (Gi3 activation) (Homo sapiens, UniProt Q6DWJ6); experiment: BRET G protein activation (dissociation) assay, Gi3, HEK293A; settings: for G protein activation, Gi3: individual replicates
T1 construct: expressed in transfected cells; host or cells: HEK293A (transient, Lipofectamine 2000)
T1 sequence (Q6DWJ6 1-353): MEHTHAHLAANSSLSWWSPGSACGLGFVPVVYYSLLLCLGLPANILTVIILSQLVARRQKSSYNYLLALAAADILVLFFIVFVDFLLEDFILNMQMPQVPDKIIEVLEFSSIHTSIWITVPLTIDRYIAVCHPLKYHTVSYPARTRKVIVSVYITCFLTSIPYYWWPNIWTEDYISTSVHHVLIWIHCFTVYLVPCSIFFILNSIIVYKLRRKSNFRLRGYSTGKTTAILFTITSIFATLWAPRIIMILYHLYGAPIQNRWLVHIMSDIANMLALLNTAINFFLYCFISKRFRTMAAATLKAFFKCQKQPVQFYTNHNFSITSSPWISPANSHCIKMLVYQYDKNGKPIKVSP
Description: (§1) Primary screening and pharmacological characterization of compounds were performed using a CHO-K1 cell line that stably expresses human GPR139 (GPR139-CHOk1). The GPR139-CHOk1 cell line was kindly provided by H. Lundbeck A/S, Denmark[24]. GPR139-CHOk1 cells were grown in Ham’s F-12 Kaighn’s Modification Medium (ThermoFisher #21127030) supplemented with 10% dialyzed fetal bovine serum (US origin, ThermoFisher #26400044), 100 units/mL Penicillin-Streptomycin (ThermoFisher #15140122), and 1 mg/mL Geneticin (ThermoFisher #11811031). […] M1R-CHOk1 cells were purchased from The Missouri S&T cDNA Resource Center (#CEM100TN00). M1R-CHOk1 cells were grown in Ham’s F12 Medium (ThermoFisher #21765029) supplemented with 10% fetal bovine serum (Brazilian origin, ThermoFisher #10270106), 100 units/mL Penicillin-Streptomycin, and 0.25 mg/mL Geneticin. HEK293A cells transiently transfected with GPR139 were used for additional pharmacological assessment of signaling pathways activated by GPR139. HEK239A cells were generously provided by Dr. Asuka Inoue, Tohoku University, Japan. HEK293A cells were grown in Dulbecco’s Modified Eagle Medium (ThermoFisher #31966047) supplemented with 10% dialyzed fetal bovine serum and 100 units/mL Penicillin-Streptomycin. Cell lines were maintained at 37 °C in humidified incubator equilibrated with 5% CO2.
(§2) The G protein dissociation assay developed by the lab of Kirill A. Martemyanov was used to measure the coupling of multiple G proteins by GPR139[57]. The assay was performed as described previously with minor modifications. HEK293A cells were reverse transfected 20–24 h prior to assay. 50,000 cells were plated in each well of white opaque tissue culture treated 96-well plates (PerkinElmer #6005680) previously coated with poly-D-lysine. Transfection solutions were prepared as described, and 10 µL transfection solution was mixed with 100 µL cells in each well. The cells in each well were transfected with 18.9 ng GPR139, 6.3 ng Venus 1-155 Gγ2, 6.3 ng Venus 159-239 Gβ1, 6.3 ng masGRK3ct-NanoLuc and 12.6 ng Gαi2, 12.6 ng Gαi3, 12.6 ng GαoA, 12.6 ng Gαq or 25.2 ng Gα12 using 375 nL Lipofectamine 2000 Transfection Reagent. Transfections with Gαq and Gα12 contained 6.3 ng DNA of the active subunit S1 of pertussis toxin (PTX-S1). Each transfection was normalized to 150 ng total DNA with pcDNA3.1. The BRET biosensors were a kind gift from the Martemyanov lab. On the day of the experiment the cells were washed with HEPES buffer. Test compounds were diluted in HEPES buffer from DMSO stocks (final DMSO concentration of maximally 0.3%). NanoLuc Luciferase substrate NanoGlo—furimazine (Promega #N1120) was diluted 1000-fold (final) in HEPES buffer. NanoGlo and test compounds were added, and measurements were performed after 10 s for Gi3, 15 s for Gi2 and GoA, 20 s for Gq, and 90 s for G12—the timepoint where maximal signal occurred with each G protein, ensuring proper determination of the potency for the G protein coupling. Simultaneous dual emission was measured at 535 nm and 475 nm on LUMIstar Omega Microplate Reader (BMG Labtech) at room temperature. The BRET ratio of 535 nm/475 nm (Venus/NanoLuc), reflecting the dissociation of the G protein heterotrimer, was used to determine the G protein activation. The basal BRET ratio obtained with buffer condition was subtracted from the absolute BRET ratio at a given test compound concentration, and the responses were normalized to the one obtained with 10 µM JNJ-63533054 for the activation of Gi2.
(§3) Pharmacological data and statistical analyses were performed in GraphPad Prism v9–10 (Graphpad Software Inc., San Diego, CA), which are also specifically described in the figure and table legends. […]

[2] = target: T2, GPR139 (GoA activation) (Homo sapiens, UniProt Q6DWJ6); experiment: BRET G protein activation (dissociation) assay, GoA, HEK293A; settings: for G protein activation, GoA: individual replicates
T2 construct: expressed in transfected cells; host or cells: HEK293A (transient, Lipofectamine 2000)
T2 sequence (Q6DWJ6 1-353): T1 sequence (Q6DWJ6 1-353)
Description: as §1, §2, §3

[3] = target: T3, GPR139 (G12 activation) (Homo sapiens, UniProt Q6DWJ6); experiment: BRET G protein activation (dissociation) assay, G12, HEK293A; settings: for G protein activation, G12: individual replicates
T3 construct: expressed in transfected cells; host or cells: HEK293A (transient, Lipofectamine 2000)
T3 sequence (Q6DWJ6 1-353): T1 sequence (Q6DWJ6 1-353)
Description: as §1, §2, §3

[4] = target: T4, GPR139 (Gi2 activation) (Homo sapiens, UniProt Q6DWJ6); experiment: BRET G protein activation (dissociation) assay, Gi2, HEK293A; settings: for G protein activation, Gi2: individual replicates
T4 construct: expressed in transfected cells; host or cells: HEK293A (transient, Lipofectamine 2000)
T4 sequence (Q6DWJ6 1-353): T1 sequence (Q6DWJ6 1-353)
Description: as §1, §2, §3

[5] = HEK293-A, normalized to JNJ-63533054 (JNJ(S))

Emax [1, 5]: 45 ± 3%
EC50 ([1]; Supplementary Table 6, read-out: pEC50 Gi3 (converted)): 50.1 nM
Emax [2, 5]: 96 ± 3%
EC50 ([2]; Supplementary Table 6): 63.1 nM
Emax [3, 5]: 54 ± 3%
EC50 ([3]; Supplementary Table 6, read-out: pEC50 G12 (converted)): 12.6 nM
Emax [4, 5]: 95 ± 5%
EC50 ([4]; Supplementary Table 6, read-out: pEC50 Gi2 (converted)): 50.1 nM
SMILES: Cc1cscc1-c1nc(CC(=O)N[C@@H](C)c2ccccc2)no1 [1.1(S)]
G protein activation, Gi3 ([1]; log [compound] M -4.5): 50 % of JNJ-63533054 at Gi2 and 43 % of JNJ-63533054 at Gi2 and 51 % of JNJ-63533054 at Gi2
G protein activation, Gi3 ([1]; log [compound] M -5.0): 46 % of JNJ-63533054 at Gi2 and 36 % of JNJ-63533054 at Gi2 and 43 % of JNJ-63533054 at Gi2
G protein activation, Gi3 ([1]; log [compound] M -5.5): 46 % of JNJ-63533054 at Gi2 and 40 % of JNJ-63533054 at Gi2 and 43 % of JNJ-63533054 at Gi2
G protein activation, Gi3 ([1]; log [compound] M -6.0): 44 % of JNJ-63533054 at Gi2 and 36 % of JNJ-63533054 at Gi2 and 42 % of JNJ-63533054 at Gi2
G protein activation, Gi3 ([1]; log [compound] M -6.5): 37 % of JNJ-63533054 at Gi2 (2×) and 36 % of JNJ-63533054 at Gi2
G protein activation, Gi3 ([1]; log [compound] M -7.0): 31 % of JNJ-63533054 at Gi2 and 26 % of JNJ-63533054 at Gi2 and 28 % of JNJ-63533054 at Gi2
G protein activation, Gi3 ([1]; log [compound] M -7.5): 18 % of JNJ-63533054 at Gi2 and 14 % of JNJ-63533054 at Gi2 and 21 % of JNJ-63533054 at Gi2
G protein activation, Gi3 ([1]; log [compound] M -8.0): 11 % of JNJ-63533054 at Gi2 and 5.42 % of JNJ-63533054 at Gi2 and 10 % of JNJ-63533054 at Gi2
G protein activation, GoA ([2]; log [compound] M -4.5): 105 % of JNJ-63533054 at Gi2 and 96 % of JNJ-63533054 at Gi2 and 101 % of JNJ-63533054 at Gi2
G protein activation, GoA ([2]; log [compound] M -5.0): 96 % of JNJ-63533054 at Gi2 and 86 % of JNJ-63533054 at Gi2 and 97 % of JNJ-63533054 at Gi2
G protein activation, GoA ([2]; log [compound] M -5.5): 94 % of JNJ-63533054 at Gi2 and 83 % of JNJ-63533054 at Gi2 and 96 % of JNJ-63533054 at Gi2
G protein activation, GoA ([2]; log [compound] M -6.0): 93 % of JNJ-63533054 at Gi2 and 78 % of JNJ-63533054 at Gi2 and 92 % of JNJ-63533054 at Gi2
G protein activation, GoA ([2]; log [compound] M -6.5): 83 % of JNJ-63533054 at Gi2 and 70 % of JNJ-63533054 at Gi2 and 76 % of JNJ-63533054 at Gi2
G protein activation, GoA ([2]; log [compound] M -7.0): 62 % of JNJ-63533054 at Gi2 and 52 % of JNJ-63533054 at Gi2 and 61 % of JNJ-63533054 at Gi2
G protein activation, GoA ([2]; log [compound] M -7.5): 34 % of JNJ-63533054 at Gi2 and 29 % of JNJ-63533054 at Gi2 and 31 % of JNJ-63533054 at Gi2
G protein activation, GoA ([2]; log [compound] M -8.0): 11 % of JNJ-63533054 at Gi2 and 8 % of JNJ-63533054 at Gi2 and 13 % of JNJ-63533054 at Gi2
G protein activation, G12 ([3]; log [compound] M -4.5): 60 % of JNJ-63533054 at Gi2 (2×) and 52 % of JNJ-63533054 at Gi2
G protein activation, G12 ([3]; log [compound] M -5.0): 54 % of JNJ-63533054 at Gi2 and 46 % of JNJ-63533054 at Gi2 and 58 % of JNJ-63533054 at Gi2
G protein activation, G12 ([3]; log [compound] M -5.5): 51 % of JNJ-63533054 at Gi2 and 44 % of JNJ-63533054 at Gi2 and 56 % of JNJ-63533054 at Gi2
G protein activation, G12 ([3]; log [compound] M -6.0): 52 % of JNJ-63533054 at Gi2 and 45 % of JNJ-63533054 at Gi2 and 55 % of JNJ-63533054 at Gi2
G protein activation, G12 ([3]; log [compound] M -6.5): 47 % of JNJ-63533054 at Gi2 and 43 % of JNJ-63533054 at Gi2 and 53 % of JNJ-63533054 at Gi2
G protein activation, G12 ([3]; log [compound] M -7.0): 46 % of JNJ-63533054 at Gi2 and 39 % of JNJ-63533054 at Gi2 and 52 % of JNJ-63533054 at Gi2
G protein activation, G12 ([3]; log [compound] M -7.5): 36 % of JNJ-63533054 at Gi2 and 32 % of JNJ-63533054 at Gi2 and 42 % of JNJ-63533054 at Gi2
G protein activation, G12 ([3]; log [compound] M -8.0): 22 % of JNJ-63533054 at Gi2 and 19 % of JNJ-63533054 at Gi2 and 27 % of JNJ-63533054 at Gi2
G protein activation, Gi2 ([4]; log [compound] M -4.5): 94 % of JNJ-63533054 at Gi2 (2×) and 104 % of JNJ-63533054 at Gi2
G protein activation, Gi2 ([4]; log [compound] M -5.0): 90 % of JNJ-63533054 at Gi2 (2×) and 104 % of JNJ-63533054 at Gi2
G protein activation, Gi2 ([4]; log [compound] M -5.5): 86 % of JNJ-63533054 at Gi2 and 80 % of JNJ-63533054 at Gi2 and 99 % of JNJ-63533054 at Gi2
G protein activation, Gi2 ([4]; log [compound] M -6.0): 86 % of JNJ-63533054 at Gi2 and 80 % of JNJ-63533054 at Gi2 and 99 % of JNJ-63533054 at Gi2
G protein activation, Gi2 ([4]; log [compound] M -6.5): 82 % of JNJ-63533054 at Gi2 and 74 % of JNJ-63533054 at Gi2 and 89 % of JNJ-63533054 at Gi2
G protein activation, Gi2 ([4]; log [compound] M -7.0): 63 % of JNJ-63533054 at Gi2 and 57 % of JNJ-63533054 at Gi2 and 72 % of JNJ-63533054 at Gi2
G protein activation, Gi2 ([4]; log [compound] M -7.5): 36 % of JNJ-63533054 at Gi2 and 35 % of JNJ-63533054 at Gi2 and 49 % of JNJ-63533054 at Gi2
G protein activation, Gi2 ([4]; log [compound] M -8.0): 14 % of JNJ-63533054 at Gi2 and 11 % of JNJ-63533054 at Gi2 and 32 % of JNJ-63533054 at Gi2
